Laboratory results: US12479804B2, “Herbicidal compounds” (SYNGENTA CROP PROTECTION AG, priority 2019, dated 2025)

What was measured:
Assay in all cases: Glasshouse herbicidal test, pre- and post-emergence, percentage damage to the plant
Format in all cases: in vivo
[1] = system: Avena fatua (AVEFA); settings: 250 g/h, evaluated after 13 days; for AVEFA POST percentage damage caused to the plant (five-point scale): post-emergence; for AVEFA PRE percentage damage caused to the plant (five-point scale): pre-emergence
Protocol: (§1) Seeds of a variety of test species are sown in standard soil in pots (Lolium perenne (LOLPE), Setaria faberi (SETFA), Alopecurus myosuroides (ALOMY), Echinochloa crus-galli (ECHCG), Avena fatua (AVEFA)). After cultivation for one day (pre-emergence) or after 8 days cultivation (post-emergence) under controlled conditions in a glasshouse (at 24/16° C., day/night; 14 hours light; 65% humidity), the plants are sprayed with an aqueous spray solution derived from the formulation of the technical active ingredient in acetone/water (50:50) solution containing 0.5% Tween 20 (polyoxyethelyene sorbitan monolaurate, CAS RN 9005-64-5). Compounds are applied at 250 g/h. The test plants are then grown in a glasshouse under controlled conditions in a glasshouse (at 24/16° C., day/night; 14 hours light; 65% humidity) and watered twice daily. After 13 days for pre and post-emergence, the test is evaluated for the percentage damage caused to the plant. The biological activities are shown in the following table on a five-point scale (5=80-100%; 4=60-79%; 3=40-59%; 2=20-39%; 1=0-19%).

[2] = system: Lolium perenne (LOLPE); settings: 250 g/h, evaluated after 13 days; for LOLPE POST percentage damage caused to the plant (five-point scale): post-emergence; for LOLPE PRE percentage damage caused to the plant (five-point scale): pre-emergence
Protocol: as §1

[3] = system: Setaria faberi (SETFA); settings: 250 g/h, evaluated after 13 days; for SETFA POST percentage damage caused to the plant (five-point scale): post-emergence; for SETFA PRE percentage damage caused to the plant (five-point scale): pre-emergence
Protocol: as §1

[4] = system: Alopecurus myosuroides (ALOMY); settings: 250 g/h, evaluated after 13 days; for ALOMY POST percentage damage caused to the plant (five-point scale): post-emergence; for ALOMY PRE percentage damage caused to the plant (five-point scale): pre-emergence
Protocol: as §1

[5] = system: Echinochloa crus-galli (ECHCG); settings: 250 g/h, evaluated after 13 days; for ECHCG POST percentage damage caused to the plant (five-point scale): post-emergence; for ECHCG PRE percentage damage caused to the plant (five-point scale): pre-emergence
Protocol: as §1

| Compound | AVEFA POST percentage damage caused to the plant (five-point scale) [1] | AVEFA PRE percentage damage caused to the plant (five-point scale) [1] | LOLPE POST percentage damage caused to the plant (five-point scale) [2] | LOLPE PRE percentage damage caused to the plant (five-point scale) [2] | SETFA POST percentage damage caused to the plant (five-point scale) [3] | SETFA PRE percentage damage caused to the plant (five-point scale) [3] | ALOMY POST percentage damage caused to the plant (five-point scale) [4] | ALOMY PRE percentage damage caused to the plant (five-point scale) [4] | ECHCG POST percentage damage caused to the plant (five-point scale) [5] | ECHCG PRE percentage damage caused to the plant (five-point scale) [5] |
| --- | --- | --- | --- | --- | --- | --- | --- | --- | --- | --- |
| CC#Cc1cc(C)c(C2C(=O)CC3(CCN(C(C)=O)C3)CC2=O)c(C)c1 (centres unmarked) [Compound A4] | 5 (5=80-100%) | 5 (5=80-100%) | 5 (5=80-100%) | 5 (5=80-100%) | 5 (5=80-100%) | 5 (5=80-100%) | 5 (5=80-100%) | 5 (5=80-100%) | 5 (5=80-100%) | 5 (5=80-100%) |
| CC#Cc1cc(C)c(C2C(=O)CC3(CCC(=O)N(C(C)=O)C3)CC2=O)c(C)c1 (centres unmarked) [Compound A11] | 5 (5=80-100%) | 3 (3=40-59%) | 5 (5=80-100%) | 5 (5=80-100%) | 5 (5=80-100%) | 5 (5=80-100%) | 5 (5=80-100%) | 5 (5=80-100%) | 5 (5=80-100%) | 5 (5=80-100%) |
| CC#Cc1cc(C)c(C2C(=O)CC3(CCCN(C(C)=O)C3)CC2=O)c(C)c1 (centres unmarked) [Compound A3] | 5 (5=80-100%) | 3 (3=40-59%) | 5 (5=80-100%) | 2 (2=20-39%) | 5 (5=80-100%) | 3 (3=40-59%) | 5 (5=80-100%) | 2 (2=20-39%) | 5 (5=80-100%) | 2 (2=20-39%) |
| CC#Cc1cc(C)c(C2=C(OC(C)=O)CC3(CCN(C(C)=O)C(=O)C3)CC2=O)c(C)c1 (centres unmarked) [Compound P2] | 5 (5=80-100%) | 5 (5=80-100%) | 5 (5=80-100%) | 5 (5=80-100%) | 5 (5=80-100%) | 5 (5=80-100%) | 5 (5=80-100%) | 5 (5=80-100%) |  | 5 (5=80-100%) |
| CC#Cc1cc(C)c(C2C(=O)CC3(CCN(C)C(=O)C3=O)CC2=O)c(C)c1 (centres unmarked) [Compound A5] | 4 (4=60-79%) | 3 (3=40-59%) | 5 (5=80-100%) | 5 (5=80-100%) | 5 (5=80-100%) | 5 (5=80-100%) | 5 (5=80-100%) | 3 (3=40-59%) | 5 (5=80-100%) | 5 (5=80-100%) |
| CC#Cc1cc(C)c(C2C(=O)CC3(C=CN(S(=O)(=O)CC)CC3)CC2=O)c(C)c1 (centres unmarked) [Compound A55] | 5 (5=80-100%) | 5 (5=80-100%) | 5 (5=80-100%) | 5 (5=80-100%) | 5 (5=80-100%) | 5 (5=80-100%) | 5 (5=80-100%) | 5 (5=80-100%) | 5 (5=80-100%) | 5 (5=80-100%) |
| CC#Cc1cc(C)c(C2C(=O)CC3(CCN(S(=O)(=O)CC)C3)CC2=O)c(C)c1 (centres unmarked) [Compound A7] | 5 (5=80-100%) | 5 (5=80-100%) | 5 (5=80-100%) | 5 (5=80-100%) | 5 (5=80-100%) | 5 (5=80-100%) | 5 (5=80-100%) | 5 (5=80-100%) | 5 (5=80-100%) | 5 (5=80-100%) |
| CC#Cc1cc(C)c(C2C(=O)CC3(C=CN(C(=O)NC(=O)C(C)(C)C)CC3)CC2=O)c(C)c1 (centres unmarked) [Compound A54] | 5 (5=80-100%) | 5 (5=80-100%) | 5 (5=80-100%) | 5 (5=80-100%) | 5 (5=80-100%) | 5 (5=80-100%) | 5 (5=80-100%) | 5 (5=80-100%) | 5 (5=80-100%) | 5 (5=80-100%) |
| CC#Cc1cc(C)c(C2C(=O)CC3(C=CN(C(=O)C(F)F)CC3)CC2=O)c(C)c1 (centres unmarked) [Compound A56] | 5 (5=80-100%) | 5 (5=80-100%) | 5 (5=80-100%) | 5 (5=80-100%) | 5 (5=80-100%) | 5 (5=80-100%) | 5 (5=80-100%) | 5 (5=80-100%) | 5 (5=80-100%) | 5 (5=80-100%) |
| CC#Cc1cc(C)c(C2C(=O)CC3(CCN(C(C)=O)CC3C)CC2=O)c(C)c1 (centres unmarked) [Compound A59] | 5 (5=80-100%) | 5 (5=80-100%) | 5 (5=80-100%) | 5 (5=80-100%) | 5 (5=80-100%) | 5 (5=80-100%) | 5 (5=80-100%) | 5 (5=80-100%) | 5 (5=80-100%) | 5 (5=80-100%) |
| CC#Cc1cc(C)c(C2C(=O)CC3(CCN4C(=O)CCCC4C3)CC2=O)c(C)c1 (centres unmarked) [Compound A13] | 5 (5=80-100%) | 5 (5=80-100%) | 5 (5=80-100%) | 5 (5=80-100%) | 5 (5=80-100%) | 5 (5=80-100%) | 5 (5=80-100%) | 5 (5=80-100%) | 5 (5=80-100%) | 5 (5=80-100%) |
| CC#Cc1cc(C)c(C2=C(OC(=O)OC)CC3(CCN(C(C)=O)C3)CC2=O)c(C)c1 (centres unmarked) [Compound P3] | 5 (5=80-100%) | 4 (4=60-79%) | 5 (5=80-100%) | 5 (5=80-100%) | 5 (5=80-100%) | 5 (5=80-100%) | 5 (5=80-100%) | 5 (5=80-100%) | 5 (5=80-100%) | 5 (5=80-100%) |
